Assay [1] relates to C. neoformans KN99α (serotype A, mating type MATα).
Assay [2] relates to C. neoformans 1841 (serotype D).
Assay [3] has as its system C. neoformans strains 1841, H99, and KN99α. The assay can be described thus: Broth microdilution assay (MIC). The class given is cell-based, Cryptococcus neoformans. Background: Dilution methods test growth across graded concentrations, often in twofold steps.
Assay [4] relates to C. neoformans H99 (serotype A).
The mark [5] stands for this setting: KN99α (serotype A, mating type MATα, 24 h).
The mark [6] stands for this setting: KN99α (serotype A, mating type MATα, 48 h).
The mark [7] stands for this setting: 1841 (serotype D, 24 h, pH 7.5).
[8] abbreviates: 1841 (serotype D, 48 h, pH 7.5).
Setting [9] is: strains 1841, H99, and KN99α, 24 h.
The mark [10] stands for this setting: broth microdilution, 50% SAB in phosphate buffer, 30°C, read after 24 h, n = 6.
Setting [11] is: broth microdilution, 50% SAB in phosphate buffer, 30°C, read after 48 h, n = 6.
Where [12] appears, read: broth microdilution, 50% SAB in phosphate buffer pH 7.5, 5 × 10^4 CFU/mL, 30°C, read after 24 h, mean of six replicates (n = 6).
The mark [13] stands for this setting: broth microdilution, 50% SAB in phosphate buffer pH 7.5, 5 × 10^4 CFU/mL, 30°C, read after 48 h, n = 6.

By MIC is commonly meant the lowest concentration found to suppress growth.

Converted amounts (≈) assume the structure as drawn. Like-named read-outs stand apart in the source and are kept apart here. Non-standard residues stand in square brackets, D forms with d. Residues, ends and D or L forms follow the SMILES beside them.

For `CC[C@H](C)[C@H](NC(=O)[C@H](Cc1ccc(O)cc1)NC(=O)[C@@H](NC(=O)[C@@H]1CCCN1C(=O)[C@H](CCCNC(=N)N)NC(=O)[C@H](CC(N)=O)NC(=O)[C@H](CC(N)=O)NC(=O)CN)C(C)C)C(=O)N1CCC[C@H]1C(=O)N[C@@H](CCC(N)=O)C(=O)N1CCC[C@H]1C(=O)N[C@@H](CCCNC(=N)N)C(=O)N1CCC[C@H]1C(=O)N1CCC[C@H]1C(=O)N[C@@H](Cc1c[nH]cn1)C(=O)N1CCC[C@H]1C(=O)N[C@@H](CCCNC(=N)N)C(=O)N[C@@H](CC(C)C)C(=O)O` [Apidaecin 1b, reference compound] (H-GNNRPVYIPQPRPPHPRL-OH), the “MIC (μmol/L) KN99α 24 h” value in assay [1] (setting [5]) is greater than 61 µmol/L. In addition, in assay [1] (setting [6]), the “MIC (μmol/L) KN99α 48 h” value was greater than 61 µmol/L. Further, the “MIC (μmol/L) 1841 24 h” value in assay [2] (setting [7]) is greater than 61 µmol/L. In assay [2] (setting [8]), the “MIC (μmol/L) 1841 48 h” value was greater than 61 µmol/L. Further, the “MIC” value in assay [3] (setting [9]) was greater than 61 µM. In addition, the “MIC (μmol/L) H99 24 h” value in assay [4] (H99 (serotype A, 24 h)) is greater than 61 µmol/L. Also, the “MIC (μmol/L) H99 48 h” value in assay [4] (H99 (serotype A, 48 h)) was greater than 61 µmol/L.
As for `CC[C@H](C)[C@H](NC(=O)[C@H](CCCCN)NC(=O)[C@H](CCC(=O)O)NC(=O)CNC(=O)CNC(=O)[C@H](CCCCN)NC(=O)[C@H](CCCNC(=N)N)NC(=O)[C@H](CC(C)C)NC(=O)[C@H](CC(C)C)NC(=O)CN)C(=O)NCC(=O)N[C@@H](CCC(=O)O)C(=O)N[C@@H](CCCCN)C(=O)N[C@@H](CC(C)C)C(=O)N[C@@H](CCCCN)C(=O)N[C@@H](CCCCN)C(=O)N[C@H](C(=O)NCC(=O)N[C@@H](CCC(N)=O)C(=O)N[C@@H](CCCCN)C(=O)N[C@H](C(=O)N[C@@H](CCCCN)C(=O)N[C@@H](CC(N)=O)C(=O)N[C@@H](Cc1ccccc1)C(=O)N[C@@H](Cc1ccccc1)C(=O)N[C@@H](CCC(N)=O)C(=O)N[C@@H](CCCCN)C(=O)N[C@@H](CC(C)C)C(=O)N[C@H](C(=O)N1CCC[C@H]1C(=O)N[C@@H](CCC(N)=O)C(=O)N1CCC[C@H]1C(=O)N[C@@H](CCC(=O)O)C(=O)N[C@@H](CCC(N)=O)C(=O)O)C(C)C)[C@@H](C)CC)[C@@H](C)CC` [CRAMP, reference compound] (H-GLLRKGGEKIGEKLKKIGQKIKNFFQKLVPQPEQ-OH), the “MIC (μmol/L) KN99α 24 h” value in assay [1] (setting [5]) was determined as 2.1 µmol/L (≈ 8.15 µg/mL). Further, the “MIC (μmol/L) KN99α 48 h” value in assay [1] (setting [6]) stood at 2.1 µmol/L (≈ 8.15 µg/mL). Moreover, the “MIC (μmol/L) 1841 24 h” value in assay [2] (setting [7]) was found to be 2.1 µmol/L (≈ 8.15 µg/mL). Besides, in assay [2] (setting [8]), the “MIC (μmol/L) 1841 48 h” value turned out to be 2.1 µmol/L (≈ 8.15 µg/mL). The “MIC” value in assay [3] worked out at 2.1 µM (≈ 8.15 µg/mL). Besides, the “MIC (μmol/L) H99 24 h” value in assay [4] (H99 (serotype A, 24 h)) came to 2.1 µmol/L (≈ 8.15 µg/mL). Moreover, in assay [4] (H99 (serotype A, 48 h)), the “MIC (μmol/L) H99 48 h” value worked out at 2.1 µmol/L (≈ 8.15 µg/mL).
As to `CC[C@H](C)[C@H](NC(=O)[C@@H]1CCCN1C(=O)[C@H](CCCNC(=N)N)NC(=O)[C@@H]1CCCN1C(=O)[C@H](Cc1c[nH]cn1)NC(=O)[C@H](CO)NC(=O)[C@@H](NC(=O)[C@@H]1CCCN1C(=O)[C@H](CCCNC(=N)N)NC(=O)[C@@H]1CCCN1C(=O)[C@H](CO)NC(=O)[C@H](Cc1ccc(O)cc1)NC(=O)[C@@H]1CCCN1C(=O)[C@H](CCCNC(=N)N)NC(=O)[C@@H]1CCCN1C(=O)[C@H](CCCCN)NC(=O)CN)[C@@H](C)O)C(=O)N[C@@H](CCCNC(=N)N)C(=O)N[C@H](C(=O)O)C(C)C` [Drosocin, reference compound] (H-GKPRPYSPRPTSHPRPIRV-OH), the “MIC (μmol/L) KN99α 24 h” value in assay [1] (setting [5]) was greater than 58 µmol/L. For the same compound, the “MIC (μmol/L) KN99α 48 h” value in assay [1] (setting [6]) is greater than 58 µmol/L. Further, in assay [2] (setting [7]), the “MIC (μmol/L) 1841 24 h” value was determined as 29 µmol/L (≈ 63.8 µg/mL). For the same compound, the “MIC (μmol/L) 1841 48 h” value in assay [2] (setting [8]) was 58 µmol/L (≈ 128 µg/mL). Further, the “MIC” value in assay [3] (setting [9]) was greater than 58 µM. In addition, the “MIC (μmol/L) H99 24 h” value in assay [4] (H99 (serotype A, 24 h)) amounted to 58 µmol/L (≈ 128 µg/mL). Besides, the “MIC (μmol/L) H99 48 h” value in assay [4] (H99 (serotype A, 48 h)) was greater than 58 µmol/L.
As for `CC[C@H](C)[C@H](NC(=O)[C@@H](CCCNC(=N)N)NC(=O)[C@H](CCCNC(=N)N)NC(=O)[C@@H]1CCCN1C(=O)[C@@H]1CCCN1C(=O)[C@H](CCCNC(=N)N)NC(=O)[C@@H]1CCCN1C(=O)[C@H](CCCNC(=N)N)NC(=O)[C@@H]1CCCN1C(=O)[C@H](CC(C)C)NC(=O)[C@H](Cc1ccc(O)cc1)NC(=O)[C@@H]1CCCN1C(=O)[C@@H]1CCCN1C(=O)[C@H](CCCCN)NC(=O)[C@H](CC(=O)O)NC(=O)[C@@H](N)C(C)C)C(=O)N[C@@H](Cc1ccc(O)cc1)C(=O)N[C@@H](CC(N)=O)C(=O)N[C@H](CCCNC(=N)N)C(N)=O` [Onc112] (H-VDKPPYLPRPRPPR[dR]IYN[dR]-NH2), in assay [1] (setting [5]), the “MIC (mg/L) KN99α 24 h” value was in the range of 8 to 16 mg/L and the “MIC (μmol/L) KN99α 24 h” value fell in the range of 3.3 to 6.7 µmol/L. Moreover, in assay [1] (setting [6]), the “MIC (mg/L) KN99α 48 h” value was 16 to 32 mg/L and the “MIC (μmol/L) KN99α 48 h” value lay within 6.7 to 13 µmol/L. For the same compound, the “MIC (μmol/L) 1841 24 h” value in assay [2] (setting [7]) amounted to 3.3 µmol/L (≈ 7.89 µg/mL). Also, the “MIC (μmol/L) 1841 48 h” value in assay [2] (setting [8]) stood at 6.7 µmol/L (≈ 16 µg/mL). Further, in assay [3] (setting [9]), the “MIC” value lay in the range of 1.6 to 6.7 µM. In assay [4] (H99 (serotype A, 24 h)), the “MIC (mg/L) H99 24 h” value was 8 to 16 mg/L and the “MIC (μmol/L) H99 24 h” value lay within 3.3 to 6.7 µmol/L. Also, in assay [4] (H99 (serotype A, 48 h)), the “MIC (μmol/L) H99 48 h” value worked out at 6.7 µmol/L (≈ 16 µg/mL).
Regarding `CC[C@H](C)[C@H](NC(=O)[C@@H]1CCCN1C(=O)[C@H](CCCNC(=N)N)NC(=O)[C@@H]1CCCN1C(=O)[C@@H]1CCCN1C(=O)[C@@H](NC(=O)[C@@H]1CCCN1C(=O)[C@H](CCCNC(=N)N)NC(=O)[C@@H]1CCCN1C(=O)[C@H](CC(C)C)NC(=O)[C@H](Cc1ccc(O)cc1)NC(=O)[C@H](CO)NC(=O)CNC(=O)[C@H](CCCCN)NC(=O)[C@H](CC(=O)O)NC(=O)[C@@H](N)C(C)C)[C@@H](C)O)C(=O)N[C@@H](Cc1ccc(O)cc1)C(=O)N[C@@H](CC(N)=O)C(=O)N[C@@H](CCCNC(=N)N)C(=O)N[C@@H](CC(N)=O)C(=O)O` [Pyrrhocoricin, reference compound] (H-VDKGSYLPRPTPPRPIYNRN-OH), the “MIC (μmol/L) KN99α 24 h” value in assay [1] (setting [10]) is greater than 55 µmol/L. Further, the “MIC (μmol/L) KN99α 48 h” value in assay [1] (setting [11]) was greater than 55 µmol/L. Also, the “MIC (μmol/L) 1841 24 h” value in assay [2] (setting [12]) was greater than 55 µmol/L. In addition, in assay [2] (setting [13]), the “MIC (μmol/L) 1841 48 h” value was greater than 55 µmol/L. For the same compound, in assay [3], the “MIC” value was greater than 55 µM. Further, the “MIC (μmol/L) H99 24 h” value in assay [4] (setting [10]) is greater than 55 µmol/L. The “MIC (μmol/L) H99 48 h” value in assay [4] (setting [11]) is greater than 55 µmol/L.
For “RRIRPRPPRLPRPRPRPLPFPRPGPRPIPRPLPFPRPGPRPIPRPLPFPRPGPRPIPRP-OH [Bac7 1–60, reference compound]”, in assay [1] (setting [10]), the “MIC (μmol/L) KN99α 24 h” value came to 1.1 µmol/L. In assay [1] (setting [11]), the “MIC (mg/L) KN99α 48 h” value was 8 to 16 mg/L and the “MIC (μmol/L) KN99α 48 h” value fell in the range of 1.1 to 2.2 µmol/L. The “MIC (μmol/L) 1841 24 h” value in assay [2] (setting [12]) is 1.1 µmol/L. Also, the “MIC (μmol/L) 1841 48 h” value in assay [2] (setting [13]) was 1.1 µmol/L. In addition, the “MIC” value in assay [3] was 1.1 µM. Further, the “MIC (μmol/L) H99 24 h” value in assay [4] (setting [10]) is 1.1 µmol/L. Besides, in assay [4] (setting [11]), the “MIC (μmol/L) H99 48 h” value was 1.1 µmol/L.

Source of the values: publication PMC10800876, “Evaluation of proline-rich antimicrobial peptides as potential lead structures for novel antimycotics against Cryptococcus neoformans” (Frontiers in Microbiology, 2024).
